In patent publication US11155821B2, “Compositions and methods for tagging ribonucleic acids” (The Regents of the University of Colorado, a body corporate, priority 2018, dated 2021):

Key:
[1] = target: truncated Cbl riboswitch RNA variant AT; assay: Isothermal titration calorimetry (ITC), aptamer AT; assay type: binding; conditions: ITC at 25° C., RNA buffer; mean of 3 independent experiments +/- STDEV
Procedure: (§1) ITC experiments were performed using protocols previously established and described [reference 30, 31]. Briefly, the RNA was dialyzed overnight at 4° C. into RNA buffer (100 mM KCl, 10 mM NaCl, 1 mM MgCl2, 50 mM HEPES, pH 8.0) using 6-8000 Dalton molecular weight cutoff dialysis tubing (Spectra/Por). The dialysis buffer was used to dissolve Cbl and Cbl-5xPEG-ATTO590, and to dilute RNA To the desired concentration. Titrations were performed at 25° C. using a MicroCal ITC 200 microcalorimeter (GE Healthcare) and data were fit using the Origin software suite as previously described [reference 61].

[2] = target: Cbl riboswitch RNA variant A (wild type env8); assay: Isothermal titration calorimetry (ITC), aptamer A; assay type: binding; conditions: ITC at 25° C., RNA buffer; mean of 3 independent experiments +/- STDEV
Procedure: as §1

[3] = target: Cbl riboswitch RNA variant D; assay: Isothermal titration calorimetry (ITC), aptamer D; assay type: binding; conditions: ITC at 25° C., RNA buffer; mean of 3 independent experiments +/- STDEV
Procedure: as §1

[4] = tested on: RNA AT,MUT (four point mutations in the Cbl-binding site); assay: In vitro fluorescence turn-on, plate reader, aptamer AT,MUT; assay type: biochemical; conditions: probe 0.25 or 0.5 μM, RNA at least 5 μM
Procedure: (§2) The concentration of Cbl-fluorophore probes, free fluorophores and free Cbl was determined using extinction coefficients listed in Table 1B. In vitro experiments were conducted in RNA buffer (100 mM KCl, 10 mM NaCl, 1 mM MgCl2, 50 mM HEPES, pH 8.0). For the Cbl-fluorophore probes, the extinction coefficient of the fluorophores was used to determine the concentration. […] The fluorescence intensity of each probe was measured in the presence or absence of RNA in RNA buffer as technical triplicates in a Tecan Safire-II fluorescence plate. […] Samples were incubated for at least 20 minutes (min) at room temperature in the dark to allow for Cbl-binding of the RNA prior to data collection. The excitation wavelength for each probe is listed in Table 1B and the emission spectrum was collected in 1 nm increments for the range listed in Table 1B. Each emission spectrum was buffer subtracted, integrated and normalized to the signal of the free fluorophore at the same concentration. Resulting % fluorescence measurements were reproducible for measurements on different days.

[5] = tested on: RNA AT; assay: In vitro fluorescence turn-on, plate reader, aptamer AT; assay type: biochemical; conditions: probe 0.25 or 0.5 μM, RNA at least 5 μM
Procedure: as §2

[6] = tested on: Broccoli; assay: Photobleaching of RNA/probe complexes, constant illumination, Broccoli; assay type: physicochemical; conditions: bound to Broccoli, within a second
Procedure: For photobleaching experiments, indicated probes and RNA (Table 10) were mixed before about 3 to 4× of microscope immersion oil (Olympus immersion oil type-F) was added and the solution was emulsified to generate droplets. Samples were prepared in RNA buffer for Cbl-fluorophore samples (100 mM KCl, 10 mM NaCl, 1 mM MgCl2, 50 mM HEPES, pH 8.0) and in Broccoli buffer (40 mM HEPES pH 7.4, 100 mM KCl, 1 mM MgCl2) for the DFHBI-1T/Broccoli sample. The droplets were sandwiched between a glass slide and a coverslip. The sample was placed on the sample stage of a Nikon Ti-E HCA widefield fluorescence microscope with the coverslip facing a 20× objective lens. Photostability was assessed in part by fixing the excitation rate, i.e. the number of absorbed excitation photons were the same for Cbl-fluorophore/RNA samples and the DFHBI-1T/Broccoli sample. The high irradiance for the DFHBI-1T Broccoli sample is a result of its low extinction coefficient. Images were acquired every 50 ms for DFHBI-1T/Broccoli and every 250 ms for others for 3 seconds, then every second for 47 seconds or longer, and the exposure time of each image was 15 ms for DFHBI-1T/Broccoli and 40 ms for others. A total of 6 to 15 droplets were analyzed for each sample.

[7] = tested on: ACTB-(2xdBroccoli) mRNA; assay: Stress granule (SG) assay, live U2-OS Halo-G3BP1 cells, Broccoli tag; assay type: cell-based, Homo sapiens; conditions: arsenite
Procedure: U2-OS cells stably producing GFP-G3BP1 or genomically producing Halo-G3BP1 were seeded at 0.25×10^6 cells in imaging dishes. One day after seeding, cells were chemically transfected with typically 2-μg plasmid DNA (1 μg of the ACTB plasmid fused with an RNA tag of interest mixed with 1 μg of the transfection marker pNLS-TagBFP (in pcDNA)) using the TransIT transfection system following manufacturer recommendations (Mirus). On the next day, cells were stained and bead loaded with the Cbl-fluorophore probe as described above. The media that was added after bead loading contained 0.5 mM sodium arsenite and cells were incubated at 37° C./5% CO 2 for 30-45 min to induce stress granules. Cells were rinsed once in PBS and Fluorobrite media (Gibco), supplemented with 0.5 mM sodium arsenite, was added for live cell imaging. For correlative live/fixed imaging where cells were first imaged live, followed by fixation and FISH/immunofluorescence imaging of the same cells, the following modifications were made to the protocol above. Instead of home-made imaging dishes, gridded imaging dishes (MatTek) were used. Dishes were coated with 1 μg/mL fibronectin (Sigma) for 4 hours and fibronectin was rinsed once with full media before cells were seeded. Because plasmid ACTB-(AT) 4x was used, a higher concentration of Cbl-5xPEG-ATTO590 was bead loaded (3 μL of 50 μM probe).
For live imaging of SGs tagged with 2xdBroccoli in U2-OS cells, the pinhole was 67.7 μm and the laser settings were as follows. For the DAPI channel, the laser was set at 5.0 (HV=110), for the GFP channel the laser was set at 1.0 (HV=110), for the TRITC channel the laser was set at 1.0 (HV=40). For live imaging of SGs tagged with MS2 stem-loop repeats in U2-OS cells, the pinhole was 67.7 μm and the laser settings were as follows. For the DAPI channel, the laser was set at 5.0 (HV=110), for the GFP channel the laser was adjusted for optimal contrast without detector saturation (approximately 1.0-2.5) (HV approximately 60-100), for the TRITC channel the laser was set at 0.9 (HV=40).

[8] = tested on: SM-KDM5B translation reporter tagged with 12 copies of Riboglow; assay: Translation assay, live U2-OS cells; assay type: cell-based
Procedure: U2-OS cells seeded on home-made imaging dishes as described above were bead loaded with a mix of 1 μg plasmid DNA encoding for the SM-KDM5B translation reporter, 3 μL of a 5 μM stock of the Cbl-fluorophore probe Cbl-4xGly-ATTO 590 and 1 μL of Alexa488-labeled Fab to bind N-terminal FLAG tags in the reporter. After 6-8 hours, cells were washed 3 times with PBS, and medium was replaced with FluoroBrite medium (Gibco). Imaging was performed under HILO conditions [reference 49] at 37° C. and 5% CO2 using an Andor Ixon Ultra DU897U-C50 EMCCD camera. When indicated, puromycin was added during the image acquisition at a final concentration of 50 μg/mL.

C/C1=C2/N[C@H]([C@H](CC(N)=O)[C@@]2(C)CCC(=O)NC[C@@H](C)OP(=O)(O)O[C@H]2[C@@H](O)[C@@H](n3cnc4cc(C)c(C)cc43)O[C@@H]2CO)[C@]2(C)N=C(/C(C)=C3N=C(/C=C4N=C1[C@@H](CCC(N)=O)C\4(C)C)[C@@H](CCC(N)=O)[C@]\3(C)CC(N)=O)[C@@H](CCC(N)=O)[C@]2(C)CC(N)=O.[Co] [Cbl, cobalamin]
Kd [1]: 290 nM | Kd [2]: 37 ± 1 nM | Kd [3]: 2.2 ± 1.6 nM

C/C1=C2/[N-][C@H]([C@H](CC(N)=O)[C@@]2(C)CCC(=O)NC[C@@H](C)OP(=O)([O-])O[C@H]2[C@@H](O)[C@@H](n3cnc4cc(C)c(C)cc43)O[C@@H]2Cn2cc(CNC(=O)c3ccc4c(c3)C3(OC4=O)c4ccc(O)cc4Oc4cc(O)ccc43)nn2)[C@]2(C)N=C(/C(C)=C3N=C(/C=C4N=C1[C@@H](CCC(N)=O)C\4(C)C)[C@@H](CCC(N)=O)[C@]\3(C)CC(N)=O)[C@@H](CCC(N)=O)[C@]2(C)CC(N)=O.[C-]#N.[Co+3] [Cbl-FAM]
Fold fluorescence turn-on [4]: 0.5x | Fold fluorescence turn-on [5]: 2.5x

CC1=N/C(=C\c2cc(F)c(O)c(F)c2)C(=O)N1CC(F)(F)F [DFHBI-1T]
fluorescence remaining after photobleaching [6]: < 20% | cells with Halo-G3BP1 labeled SGs where no corresponding SGs in the green Broccoli channel were detectable [7]: 90% | total SGs detected in the green Broccoli channel [7]: 4% | transfected cells in which at least one SG was detected in the green channel [7]: 10%

COc1ccc(C[C@H](N)C(=O)N[C@H]2[C@@H](O)[C@H](n3cnc4c(N(C)C)ncnc43)O[C@@H]2CO)cc1 [Puromycin]
protein signal at translation sites ([8]; Puromycin added to cells with co-moving translation spots): rapid disappearance of the protein signal | mRNA spots colocalized with protein signal ([8]; after Puromycin treatment, 50 μg/mL): 30±12%
